# System: adenylate cyclase
# Assay: stimulation of adenylate cyclase activity in purified fibroblast (3T3 F442A) cell membranes, AMPc measured by radioimmunoassay
# Type: biochemical, mouse
# Conditions: at 0.05 g/l, 37° C., 3T3 F442A fibroblast membranes; basal activity without effector = 100%
# Protocol: Cell membranes are initially obtained by culturing to confluence fibroblasts of the 3T3 F442A line commercially available from Flow Laboratories.
# These fibroblast cell membranes which constitute an enzyme source, are incubated in a reaction medium in the presence of ATP at 37° C. for a predefined length of time.
# The resulting AMPc is measured by radioimmunoassay. Taking the basal activity, i.e. activity without an effector, as being 100%, it is possible to determine the influence of an effector on the enzyme system.
# Cell membranes are purified from the fibroblast in culture.
# In this context, it should be observed that purification of cell membranes releases numerous enzymes into the assay medium. Two of these enzymes are undesirable in implementing the test. They comprise firstly Na^+, K^+ ATPase which transform ATP into adenosine diphosphate, and secondly phosphodiesterase 3',5'-AMPc which degrades cyclic AMP into AMP. Thus, in order to obtain reliable results from the test, it is essential to inhibit those two enzymes. The first is inhibited by means of ouabain, and the second by means of theophylline.
# The reaction medium is thus constituted by:
# 50 μl of a 5 mM solution of […] (ATP) as substrate;
# 100 μl of a 20 mM solution of ouabain as an inhibitor of ATPase;
# 100 μl of a 20 mM solution of theophylline as an inhibitor of phosphodiesterase; and […]
compound,measurement,value
C=C[C@@]1(C)CC(=O)[C@]2(O)[C@@]3(C)[C@@H](O)CCC(C)(C)[C@@H]3[C@H](O)[C@H](OC(C)=O)[C@@]2(C)O1 [forskoline],% activity (adenylate cyclase; basal activity = 100),225%
